Assay results: patent US20210290644A1, “COMPOUNDS AND METHODS FOR TREATING FUNGAL INFECTIONS” (Amplyx Pharmaceuticals, Inc., priority 2018, published 2021)
Several values for one entry are separate records, joined by “and”; a condition that tells them apart may be missing. Identical values can stand only once.

Experiments:
[1] = Study #2 Phase 1: pharmacokinetics after single IV and single/multiple oral doses of Compound 1, absolute oral bioavailability;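 further: phase 1 study design: one IV dose, then escalating single oral doses, fed versus fasted single oral dosing, and once-daily oral dosing over 14 days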
Excerpt: In the single ascending dose (SAD) phase, subjects in Cohort 1a received a single IV dose in Period A and then rising single oral doses in Periods B to D. Subjects in Cohort 1b received a single oral dose under fed and fasted conditions in Periods E and F. Subjects in Cohorts 2 and 3 received once-daily oral doses for 14 days, as did subjects in Cohort 4 as part of an in vivo screen for drug-drug interaction (DDI) potential.
For SAD Cohorts 1a and 1b, urine samples for the determination of Compound 1A were collected through 48 hrs after dosing.
Forty-six (46) subjects were enrolled into the study, 8 in Cohort 1a, 10 in Cohort 1b, and 8 each in Cohorts 2 and 3.

clinical = details: both, human, iv; for clearance / half-life: in vivo
[2] = oral Compound 1 QD × 14 days, 3 cohorts
[3] = single oral doses of Compound 1 100 mg to 500 mg, fasted

Nc1ncccc1-c1cc(Cc2ccc(COc3ccccn3)cc2)no1 [Compound 1A]
AUC(0-inf) ([1]; human, plasma, iv, 200 mg): 87.5 µg·h/mL
Vd ([1]; human, plasma, iv, 200 mg): 124 L and 1.6 L/kg
clearance ([1]; human, plasma, iv, 200 mg): 29.1 mL/min and 0.377 mL/min/kg
AUC(0-t) ([1]; human, plasma, iv, 200 mg, AUC(0-24), 200 mg/3 hr IV Compound 1, fasted, geometric mean): 24.4 µg·h/mL
AUC(0-t) ([1]; human, plasma, iv, 200 mg, AUC(0-t), 200 mg/3 hr IV Compound 1, fasted, geometric mean): 86.3 µg·h/mL
Cmax ([1]; human, plasma, iv, 200 mg, 200 mg/3 hr IV Compound 1, fasted, geometric mean): 2640 ng/mL
Tmax ([1]; human, plasma, iv, 200 mg, Tmax, 200 mg/3 hr IV Compound 1, fasted, median): 3 h
half-life ([1]; human, plasma, iv, 200 mg, geometric mean t1/2, IV treatment, 200 mg Compound 1 over 3 hrs): 2.05 days
half-life ([1]; human, plasma, iv, 200 mg, t½, 200 mg/3 hr IV Compound 1, fasted, geometric mean): 2.05 days
bioavailability ([1]; human, plasma, oral): 90.6 to 101%
AUC(0-t) ([1]; human, plasma, oral, 500 mg, AUC(0-24), Day 1, Cohort 2, 500 mg Tablets QD × 14 Days, fed, geometric mean): 50.7 µg·h/mL
AUC(0-t) ([1]; human, plasma, oral, 500 mg, AUC(0-24), Day 7, Cohort 2, 500 mg Tablets QD × 14 Days, fed, geometric mean): 154 µg·h/mL
AUC(0-t) ([1]; human, plasma, oral, 500 mg, AUC(0-24), Day 14, Cohort 2, 500 mg Tablets QD × 14 Days, fed, geometric mean): 191 µg·h/mL
CL/F ([1]; human, plasma, oral, 500 mg, CL, Day 14, Cohort 2, 500 mg Tablets QD × 14 Days, fed, geometric mean): 0.462 mL/min/kg
Cmax ([1]; human, plasma, oral, 500 mg, Day 1, Cohort 2, 500 mg Tablets QD × 14 Days, fed, geometric mean): 6180 ng/mL
Cmax ([1]; human, plasma, oral, 500 mg, Day 7, Cohort 2, 500 mg Tablets QD × 14 Days, fed, geometric mean): 10900 ng/mL
Cmax ([1]; human, plasma, oral, 500 mg, Day 14, Cohort 2, 500 mg Tablets QD × 14 Days, fed, geometric mean): 12000 ng/mL
Tmax ([1]; human, plasma, oral, 500 mg, Tmax, Day 1, Cohort 2, 500 mg Tablets QD × 14 Days, fed, median): 4 h
Tmax ([1]; human, plasma, oral, 500 mg, Tmax, Day 7, Cohort 2, 500 mg Tablets QD × 14 Days, fed, median): 3.76 h
Tmax ([1]; human, plasma, oral, 500 mg, Tmax, Day 14, Cohort 2, 500 mg Tablets QD × 14 Days, fed, median): 3.75 h
half-life ([1]; human, plasma, oral, 500 mg, T½, Day 14, Cohort 2, 500 mg Tablets QD × 14 Days, fed, geometric mean): 3.06 days
AUC(0-t) ([1]; human, plasma, oral, 1000 mg, AUC(0-24), Day 1, Cohort 3, 1000 mg Tablets QD × 14 Days, fed, geometric mean): 119 µg·h/mL
AUC(0-t) ([1]; human, plasma, oral, 1000 mg, AUC(0-24), Day 7, Cohort 3, 1000 mg Tablets QD × 14 Days, fed, geometric mean): 316 µg·h/mL
AUC(0-t) ([1]; human, plasma, oral, 1000 mg, AUC(0-24), Day 14, Cohort 3, 1000 mg Tablets QD × 14 Days, fed, geometric mean): 326 µg·h/mL
CL/F ([1]; human, plasma, oral, 1000 mg, CL, Day 14, Cohort 3, 1000 mg Tablets QD × 14 Days, fed, geometric mean): 0.582 mL/min/kg
Cmax ([1]; human, plasma, oral, 1000 mg, Day 1, Cohort 3, 1000 mg Tablets QD × 14 Days, fed, geometric mean): 10600 ng/mL
Cmax ([1]; human, plasma, oral, 1000 mg, Day 7, Cohort 3, 1000 mg Tablets QD × 14 Days, fed, geometric mean): 21300 ng/mL
Cmax ([1]; human, plasma, oral, 1000 mg, Day 14, Cohort 3, 1000 mg Tablets QD × 14 Days, fed, geometric mean): 21300 ng/mL
Tmax ([1]; human, plasma, oral, 1000 mg, Tmax, Day 1, Cohort 3, 1000 mg Tablets QD × 14 Days, fed, median): 4.5 h
Tmax ([1]; human, plasma, oral, 1000 mg, Tmax, Day 7, Cohort 3, 1000 mg Tablets QD × 14 Days, fed, median): 4 h
Tmax ([1]; human, plasma, oral, 1000 mg, Tmax, Day 14, Cohort 3, 1000 mg Tablets QD × 14 Days, fed, median): 3.77 h
half-life ([1]; human, plasma, oral, 1000 mg, T½, Day 14, Cohort 3, 1000 mg Tablets QD × 14 Days, fed, geometric mean): 2.19 days
bioavailability ([1]; human, plasma, po, 100 mg): 90.6%
Tmax ([1]; human, plasma, po, 100 mg, Tmax, 100 mg Oral Compound 1, fasted, median): 2 h
AUC(0-inf) ([1]; human, plasma, po, 300 mg): 122 µg·h/mL
Vd/F ([1]; human, plasma, po, 300 mg): 142 L and 1.84 L/kg
bioavailability ([1]; human, plasma, po, 300 mg): 93.1%
AUC(0-t) ([1]; human, plasma, po, 300 mg, AUC(0-24), 300 mg Oral Compound 1, fasted, geometric mean): 35.6 µg·h/mL
AUC(0-t) ([1]; human, plasma, po, 300 mg, AUC(0-t), 300 mg Oral Compound 1, fasted, geometric mean): 118 µg·h/mL
CL/F ([1]; human, plasma, po, 300 mg, CL/F, 300 mg Oral Compound 1, fasted, geometric mean): 0.405 mL/min/kg
Cmax ([1]; human, plasma, po, 300 mg, 300 mg Oral Compound 1, fasted, geometric mean): 3750 ng/mL
Tmax ([1]; human, plasma, po, 300 mg, Tmax, 300 mg Oral Compound 1, fasted, median): 2.5 h
half-life ([1]; human, plasma, po, 300 mg, t½, 300 mg Oral Compound 1, fasted, geometric mean): 2.19 days
bioavailability ([1]; human, plasma, po, 400 mg): 101%
Tmax ([1]; human, plasma, po, 400 mg, Tmax, 400 mg Oral Compound 1, fasted, median): 2.5 h
AUC(0-inf) ([1]; human, plasma, po, 500 mg): 205 µg·h/mL
Vd/F ([1]; human, plasma, po, 500 mg): 121 L and 1.62 L/kg
bioavailability ([1]; human, plasma, po, 500 mg): 93.5%
AUC(0-t) ([1]; human, plasma, po, 500 mg, AUC(0-24), 500 mg Oral Compound 1, fasted, geometric mean): 59 µg·h/mL
AUC(0-t) ([1]; human, plasma, po, 500 mg, AUC(0-24), Day 1, Cohort 4, 500 mg Oral Solution QD × 14 Days, fed, geometric mean): 56.7 µg·h/mL
AUC(0-t) ([1]; human, plasma, po, 500 mg, AUC(0-24), Day 7, Cohort 4, 500 mg Oral Solution QD × 14 Days, fed, geometric mean): 140 µg·h/mL
AUC(0-t) ([1]; human, plasma, po, 500 mg, AUC(0-24), Day 14, Cohort 4, 500 mg Oral Solution QD × 14 Days, fed, geometric mean): 153 µg·h/mL
AUC(0-t) ([1]; human, plasma, po, 500 mg, AUC(0-t), 500 mg Oral Compound 1, fasted, geometric mean): 197 µg·h/mL
CL/F ([1]; human, plasma, po, 500 mg, CL, Day 14, Cohort 4, 500 mg Oral Solution QD × 14 Days, fed, geometric mean): 0.555 mL/min/kg
CL/F ([1]; human, plasma, po, 500 mg, CL/F, 500 mg Oral Compound 1, fasted, geometric mean): 0.418 mL/min/kg
Cmax ([1]; human, plasma, po, 500 mg, 500 mg Oral Compound 1, fasted, geometric mean): 6410 ng/mL
Cmax ([1]; human, plasma, po, 500 mg, Day 1, Cohort 4, 500 mg Oral Solution QD × 14 Days, fed, geometric mean): 5850 ng/mL
Cmax ([1]; human, plasma, po, 500 mg, Day 7, Cohort 4, 500 mg Oral Solution QD × 14 Days, fed, geometric mean): 10400 ng/mL
Cmax ([1]; human, plasma, po, 500 mg, Day 14, Cohort 4, 500 mg Oral Solution QD × 14 Days, fed, geometric mean): 12300 ng/mL
Tmax ([1]; human, plasma, po, 500 mg, Tmax, 500 mg Oral Compound 1, fasted, median): 3 h
Tmax ([1]; human, plasma, po, 500 mg, Tmax, Day 1, Cohort 4, 500 mg Oral Solution QD × 14 Days, fed, median): 2 h
Tmax ([1]; human, plasma, po, 500 mg, Tmax, Day 7, Cohort 4, 500 mg Oral Solution QD × 14 Days, fed, median): 2 h
Tmax ([1]; human, plasma, po, 500 mg, Tmax, Day 14, Cohort 4, 500 mg Oral Solution QD × 14 Days, fed, median): 1 h
half-life ([1]; human, plasma, po, 500 mg, T½, Day 14, Cohort 4, 500 mg Oral Solution QD × 14 Days, fed, geometric mean): 2.31 days
half-life ([1]; human, plasma, po, 500 mg, t½, 500 mg Oral Compound 1, fasted, geometric mean): 1.87 days
half-life ([1]; human, plasma, po, geometric mean t1/2, range across treatments, 4 oral treatments of Compound 1): 1.87 to 2.7 days
Tmax ([1]; human, plasma, po, median tmax, range across doses and study days, oral Compound 1 500 mg and 1000 mg QD × 14 days, fed): 2 to 3 h
Tmax ([1]; human, plasma, po, median tmax, range across doses, 4 single oral doses of Compound 1): 2 to 3 h
median accumulation, ratio of AUC0-24 on Day 14 to Day 1 [1, 2]: 2.95
median accumulation, ratio of Cmax on Day 14 to Day 1 [1, 2]: 1.99
increase in geometric mean Cmax and AUC0-24 from 500 mg to 1000 mg ([1]; oral QD × 14 days, Days 1, 7, and 14): ~2 fold
slope of log-log AUC(inf) vs. dose (power model parameter b) [1, 3]: 1.04±0.046
slope of log-log Cmax vs. dose (power model parameter b) [1, 3]: 0.935±0.077
clearance (clinical): 25.7 mL/min and 0.348 mL/min/kg
half-life (clinical): 3.12 days
clearance (clinical; CL): 31.5 mL/min and 0.45 mL/min/kg
half-life (clinical; geometric mean T1/2, range across treatments): 1.63 to 3.12 days
half-life (clinical; geometric mean t1/2, range across cohorts): 2 to 2.88 days
half-life (clinical; t½): 1.63 days
AUC(0-t) (clinical; plasma, 150 mg): 51900 ng·h/mL
Cmax (clinical; plasma, 150 mg): 3420 ng/mL
Vd (clinical; plasma, 150 mg): 174 L and 2.17 L/kg
AUC(0-inf) (clinical; plasma, 350 mg): 173 µg·h/mL
Cmax (clinical; plasma, 350 mg): 4330 ng/mL
Vd (clinical; plasma, 350 mg): 167 L and 2.26 L/kg
